Experimental data from PubChem BioAssay AID652280 (Broad Institute, 2013).
Inconclusive results are not listed. The source made the active and inactive calls. No rule for the calls is given here.

System: not listed separately
Test: NIH/3T3 fibroblast cytotoxicity, dose response, cytotoxicity control, cell-based, plate reader, dry powder, set 2 (AID 652280)
Details: NIH/3T3 mouse fibroblast toxicity, plate reader; at 16 µM (top of the series)
With `CN(C)C(=O)c1cccc(-c2ccc([C@H]3[C@@H](CO)N4CCCCN(C(=O)C5CCC5)C[C@H]34)cc2)c1` the activity change, negative = toxicity was 9.2% (inactive). With `Cc1cccc(-c2ccc([C@H]3[C@H](CO)N4CCCCN(C(=O)c5cccnc5)C[C@@H]34)cc2)c1` the activity change, negative = toxicity was -10.6% (inactive). For `CC(C)(C)S(=O)N1Cc2cc(C(=O)NCc3ccc4c(c3)OCO4)nc(-c3cccc(-c4cc5ccccc5o4)c3)c2[C@H]1CCO` (stereo not given in full), the activity change, negative = toxicity was -5.85% (inactive). In the case of `CC(C)N1C[C@H](C)[C@@H](CN(C)C(=O)OC(C)(C)C)Oc2c(cccc2-c2nn[nH]n2)C1=O`, the activity change, negative = toxicity is reported as 34.3% (inactive). For `CN(C)CC#Cc1cccc(-c2nc(C(=O)N[C@@H]3CCN(Cc4ccccc4)C3)cc3c2[C@@H](CCO)N(S(=O)C(C)(C)C)C3)c1` (stereo not given in full), the activity change, negative = toxicity was 0.065% (inactive). With `COc1cccc(-c2ccc([C@H]3[C@H](CO)N4CCCCN(C(=O)Cc5ccncc5)C[C@@H]34)cc2)c1` the activity change, negative = toxicity was -1.62% (inactive). For `C[C@@H]1CN([C@@H](C)CO)C(=O)c2cccc(NC(=O)c3ccncc3)c2O[C@H]1CN(C)Cc1cccc(Cl)c1`, the activity change, negative = toxicity was -5.45% (inactive). In the case of `C[C@H]1CN([C@@H](C)CO)C(=O)c2cccc(NC(=O)c3ccncc3)c2O[C@@H]1CN(C)Cc1ccccc1Cl`, the activity change, negative = toxicity is reported as -7.97% (inactive). For `COCCNC(=O)c1cc2c(c(-c3cccc(C#CCN(C)C)c3)n1)[C@@H](CCO)N(S(=O)C(C)(C)C)C2` (stereo not given in full), the activity change, negative = toxicity was 5.61% (inactive).

System: NIH/3T3 mouse fibroblast toxicity, plate reader
Test: as above
Details: not given
`C[C@@H]1CN([C@@H](C)CO)C(=O)c2cccc(NC(=O)c3ccncc3)c2O[C@H]1CN(C)Cc1ccc(Oc2ccccc2)cc1` gave an AC50 of 3.31 µM.
